Measured values reported in EP0455432A1, “Alpha-glycosyl naringin, and its preparation and uses” (KABUSHIKI KAISHA HAYASHIBARA SEIBUTSU KAGAKU KENKYUJO, priority 1990, dated 1991).

Test system: α-glucosidase (EC 3.2.1.20) derived from pig liver

α-Glucosyl naringin
hydrolysis by α-glucosidase: hydrolyzed α-glucosyl naringin into naringin and D-glucose
